# Laboratory results: patent US10975063B2, “Compound, and production method thereof, and methods of treatment using the compound” (ABIVAX, priority 2009, dated 2021)
# Test system: HIV-1
# Experiment: Inhibition of HIV-1 production (p24 antigen) in infected peripheral blood mononuclear cells (PBMCs)
# Assay type: cell-based, HIV-1 (AdaM) in PBMCs of healthy donors
# Conditions: for IC50: Human immunodeficiency virus 1, PBMC, p24 production in HIV infected PBMCs, dose response curves; for Inhibition of p24 production in HIV infected PBMCs from different donors: tested molecules at 10 μM, p24 after 3 and 6 days of infection, number of donors with inhibition out of donors tested
# Procedure: Within this framework, the peripheral blood mononuclear cells (PBMCs) of healthy donors are isolated by centrifugation on a FICOLL gradient. The cells are then cultivated to a density of 2.5×10^6 cells/ml with RPMI medium supplemented with 1% inactivated human AB serum, then incubated at 37° C., 5% CO2 for an additional hour. The peripheral blood mononuclear cells are then recovered and cultivated for two days in RPMI medium supplemented with 10% fetal calf serum.
# A standard experiment using 96 plates to test 30 molecules in triplicates including positive and negative controls, is performed as follows:
# 50 10^6 Ficoll purified PBMCs (10% DMSO 90% FCS) are washed with RPMI 10% FCS and resuspended in 25 ml of RPMI 10% FCS, glutamax containing 1000 U/ml of IL2 and 5 μg/ml PHA. The cells are then incubated for 3 days at 37° C. before to be washed with 50 ml PBS then with 50 ml RPMI 10% FCS. The cells are resuspended in 100 μl of RPMI 10% FCS containing 100 U/ml IL2 and seeded in 96 wells (1.5 10^5 cells/well). Viral infection is performed with 1 ng of AdaM/well. 100 μl of tested molecules at concentration of 10 μM are added to each well. Virus production is determined by p24 antigen immunosorbent assays after 3 and 6 days of infection (Kit Innogenetics). Typically PBMCs are prepared from several healthy donors (around 11 different donors). Dose response curves were then established with selected compounds to determine IC50.
Structure (SMILES),IC50 [nM],Inhibition of p24 production in HIV infected PBMCs from different donors
"Cc1ccnc(Nc2ccc3cccc(Cl)c3n2)c1 [Compound 6, (8-Chloro-quinolin-2-yl)-(4-methyl-pyridin-2-yl)-amine]",0.1,
"Fc1ccc(Nc2ccc3cccc(Cl)c3n2)nc1 [Compound 43, 8-chloro-N-(5-fluoropyridin-2-yl)quinolin-2-amine]",0.1,8 out of 10 donnors
"Cc1cccc(Nc2nc3ccccc3cc2C)n1 [Compound 46, 3-methyl-N-(6-methylpyridin-2-yl)quinolin-2-amine]",,4 out of 4 donnors
"CCc1cccc(Nc2ccc3cccc(Cl)c3n2)n1 [Compound 50, 8-chloro-N-(6-ethylpyridin-2-yl)quinolin-2-amine]",,4 out of 4 donnors
"Cc1ccnc(Nc2ccc3c([N+](=O)[O-])cccc3n2)c1 [Compound 64, N-(4-methylpyridin-2-yl)-5-nitroquinolin-2-amine]",,5 out of 5 donnors
"FC(F)(F)c1ccnc(Nc2ccc3cccc(Cl)c3n2)c1 [Compound 68, 8-chloro-N-[4-(trifluoromethyl)pyridin-2-yl]quinolin-2-amine]",,4 out of 4 donnors
"Oc1cccnc1Nc1ccc2cccc(Cl)c2n1 [Compound 69, 2-[(8-chloroquinolin-2-yl)amino]pyridin-3-ol]",,4 out of 4 donnors
"FC(F)(F)c1cccc(Nc2ccc3cccc(Cl)c3n2)n1 [Compound 70, 8-chloro-N-[6-(trifluoromethyl)pyridin-2-yl]quinolin-2-amine]",,4 out of 4 donnors
"Fc1ccc(Nc2ccc3cc(Cl)ccc3n2)nc1 [Compound 71, 6-chloro-N-(5-fluoropyridin-2-yl)quinolin-2-amine]",,4 out of 4 donnors
"CCc1cccc(Nc2nc3ccccc3cc2C)n1 [Compound 72, N-(6-ethylpyridin-2-yl)-3-methylquinolin-2-amine]",,4 out of 4 donnors
"Cc1cc2ccccc2nc1Nc1ccc(F)cn1 [Compound 73, N-(5-fluoropyridin-2-yl)-3-methylquinolin-2-amine]",,4 out of 4 donnors
"Cc1cc2ccccc2nc1Nc1ccc(C(F)(F)F)cn1 [Compound 74, 3-methyl-N-[5-(trifluoromethyl)pyridin-2-yl]quinolin-2-amine]",,4 out of 4 donnors
"CN(C)c1ccc(Nc2ccc3cccc(Cl)c3n2)cc1 [Compound 75, 4-N-(8-chloroquinolin-2-yl)-1-N,1-N-dimethylbenzene-1,4-diamine]",,6 out of 7 donnors
"COc1ccc(Nc2ccc3cccc(Cl)c3n2)cc1 [Compound 77, 8-chloro-N-(4-methoxyphenyl)quinolin-2-amine]",0.05,11 out of 13 donnors
"Cc1cc(Nc2ccc(OC(F)(F)F)cc2)nc2ccccc12 [Compound 78, 4-methyl-N-[4-(trifluoromethoxy)phenyl]quinolin-2-amine]",,7 out of 8 donnors
"COc1ccc(Nc2nc3ccccc3cc2C)cc1 [Compound 79, N-(4-methoxyphenyl)-3-methylquinolin-2-amine]",,7 out of 8 donnors
"Cc1cc2ccccc2nc1Nc1ccc(OC(F)(F)F)cc1 [Compound 80, 3-methyl-N-[4-(trifluoromethoxy)phenyl]quinolin-2-amine]",1,7 out of 8 donnors
"Cc1cc2ccccc2nc1Nc1ccc(N(C)C)cc1 [Compound 81, 1-N,1-N-dimethyl-4-N-(3-methylquinolin-2-yl)benzene-1,4-diamine]",,4 out of 4 donnors
"FC(F)(F)Oc1cccc(Nc2ccc3cccc(Cl)c3n2)c1 [Compound 87, 8-chloro-N-[3-(trifluoromethoxy)phenyl]quinolin-2-amine]",,4 out of 4 donnors
"Fc1cccc(Nc2ccc3cccc(Cl)c3n2)c1 [Compound 88, 8-chloro-N-(3-fluorophenyl)quinolin-2-amine]",,4 out of 4 donnors
"FC(F)(F)Oc1ccc(Nc2ccc3cccc(Cl)c3n2)cc1 [Compound 90, 8-chloro-N-[4-(trifluoromethoxy)phenyl]quinolin-2-amine]",0.1,8 out of 10 donnors
"Cc1cc2ccccc2nc1Nc1cccc(OC(F)(F)F)c1 [Compound 92, 3-methyl-N-[3-(trifluoromethoxy)phenyl]quinolin-2-amine]",,3 out of 5 donnors
"FC(F)(F)Oc1ccc(Nc2ccc3cc(Cl)ccc3n2)cc1 [Compound 96, 6-chloro-N-(4-(trifluoromethoxy)phenyl)quinolin-2-amine]",,5 out of 6 donnors
"FC(F)(F)Oc1ccc(Nc2ccc3cccc(Cl)c3n2)cc1Cl [Compound 104, 8-chloro-N-[3-chloro-4-(trifluoromethoxy)phenyl]quinolin-2-amine]",,4 out of 4 donnors
"Clc1cccc2ccc(Nc3cnccn3)nc12 [Compound 112, 8-chloro-N-(pyrazin-2-yl)quinolin-2-amine]",0.1,12 out of 13 donnors
"Cc1ccnc(Nc2nc3ccccc3nc2C(F)(F)F)c1 [Compound 139, N-(4-methylpyridin-2-yl)-3-(trifluoromethyl)quinoxalin-2-amine]",,4 out of 4 donnors
"Cc1c(Cl)cnc(Nc2cnc3ccccc3n2)c1Cl [Compound 140, N-(3,5-dichloro-4-methylpyridin-2-yl)quinoxalin-2-amine]",,4 out of 4 donnors
"Cc1ccnc(Nc2cnc3ccccc3n2)c1[N+](=O)[O-] [Compound 141, N-(4-methyl-3-nitropyridin-2-yl)quinoxalin-2-amine]",,4 out of 4 donnors
